Measurements from patent US10759865B2, “Treatment of diabetes mellitus” (priority 2017, dated 2020).
Structures can show the parent of a compound that is named as a salt.

System: patient diagnosed with IDDM
Assay: treatment of a IDDM patient, blood IDDM markers over time
Format: in vivo, human
Design: Insulin Auto Ab (<0.4) / IA2 Ab (Islet cell Ab Screen) (<0.8) / Glucose / Insulin (2-19.6) / HgbA1C / GAD-65 (<5): unit not given here
Experimental: A patient diagnosed with IDDM was treated with 8 units of exogenous long-acting insulin per day (administered in the evening) and 1 unit of short-acting insulin per 6 grams of carbohydrate food intake (administered before each meal).
Specific stimulation high-carb diet was introduced occasionally to monitor the patient's pancreatic ability to respond to the glycemic demands.
Each IVIG dose was administered in one continuous infusion session. From week 16 to week 42, the patient was also treated with alpha one antitrypsin.
Throughout the patient's treatment, the patient's blood was drawn at the time points indicated in Tables 1-2 below, and analyzed by established testing laboratories with respect to standard IDDM blood parameters (see Tables 1-2, top row of each table listing the markers assayed; the numerical values in parenthesis after some of the markers indicate normal reference levels).
The patient was dosed at 750 mg intravenously on weeks 87, 88, 89 and 90.
Tables 1 and 2 describe the same treatment but include data points with respect to different markers tested.

[1] = week 19, 8 mg BID, also alpha one antitrypsin
[2] = week 22, 8 mg BID, also alpha one antitrypsin
[3] = week 25, 8 mg BID, also alpha one antitrypsin
[4] = week 26, 16 mg BID, also alpha one antitrypsin
[5] = week 29, 16 mg BID, also alpha one antitrypsin
[6] = week 30, 16 mg BID, also alpha one antitrypsin
[7] = week 36, 16 mg BID, also alpha one antitrypsin
[8] = week 47, 16 mg BID, IVIG 2, 1, 1 mg/Kg in week 44
[9] = week 50, 16 mg BID, IVIG weeks 44, 47.5
[10] = week 53, 16 mg BID, IVIG weeks 44, 47.5, 50.5
[11] = week 57, 16 mg BID, IVIG weeks 44-54
[12] = week 61, 16 mg BID, IVIG weeks 44-54
[13] = week 66, 16 mg BID, IVIG weeks 44-54
[14] = week 70, 16 mg BID, IVIG weeks 44-54
[15] = week 75, 16 mg BID, IVIG weeks 44-54
[16] = week 79, 5 mg QAM & 10 mg QHS, IVIG weeks 44-54
[17] = week 82.5, 10 mg BID, IVIG weeks 44-54
[18] = week 87.5, 10 mg BID, IVIG 2, 1, 1 gm/Kg week 86, Rituxan 750 mg iv week 87
[19] = week 91.25, 10 mg BID, IVIG weeks 86, 89, Rituxan 750 mg iv weeks 87-90
[20] = week 92.25, 10 mg BID, IVIG weeks 86, 89, Rituxan 750 mg iv weeks 87-90
[21] = week 99.25, 10 mg BID, IVIG weeks 86, 89, Rituxan 750 mg iv weeks 87-90

## C[C@@H]1CCN(C(=O)CC#N)C[C@@H]1N(C)c1ncnc2[nH]ccc12 [tofacitinib citrate, (3R,4R)-4-methyl-3-(methyl-7H-pyrrolo[2,3-d]pyrimidin-4-ylamino)-β-oxo-1-piperidinepropanenitrile, 2-hydroxy-1,2,3-propanetricarboxylate (1:1)]
Week 4, 8 mg BID
  C-Peptide (0.8-3.85): 2.66
  IA2 Ab (Islet cell Ab Screen) (<0.8): 43.8
  Insulin (2-19.6): 17.1
  Insulin Auto Ab (<0.4): 7.2
Week 9, 8 mg BID
  C-Peptide (0.8-3.85): 1.5
  HgbA1C: 7.2
  Insulin (2-19.6): 7.8
Week 10, 8 mg BID
  C-Peptide (0.8-3.85): 4.7
  IA2 Ab (Islet cell Ab Screen) (<0.8): >50
  Insulin (2-19.6): 34.5
  Insulin Auto Ab (<0.4): 64
Week 13, 8 mg BID
  C-Peptide (0.8-3.85): 1.43
  Glucose: 104
  IA2 Ab (Islet cell Ab Screen) (<0.8): 46.2
  Insulin Auto Ab (<0.4): 6.1
  Islet Cell Ab Titers: 320
[1]
  C-Peptide (0.8-3.85): 1.79
  GAD-65 (<5): <5
  Glucose: 126
  HgbA1C: 6.1
  IA2 Ab (Islet cell Ab Screen) (<0.8): 37.7
  Insulin (2-19.6): 12
  Insulin Auto Ab (<0.4): 6.6
  Islet Cell Ab Titers: 80
[2]
  Glucose: 210
  HgbA1C: 6.1
  Insulin (2-19.6): 24.8
  Insulin Auto Ab (<0.4): 4
  Islet Cell Ab Titers: negative
[3]
  Insulin Auto Ab (<0.4): 5.3
  Islet Cell Ab Titers: 20
[4]
  C-Peptide (0.8-3.85): 2.19
  GAD-65 (<5): <5
  Glucose: 93
  IA2 Ab (Islet cell Ab Screen) (<0.8): 47.3
  Insulin (2-19.6): 12
  Insulin Auto Ab (<0.4): 5
  Islet Cell Ab Titers: negative
[5]
  C-Peptide (0.8-3.85): 1.34
  Glucose: 85
  HgbA1C: 6.2
  IA2 Ab (Islet cell Ab Screen) (<0.8): 47.7
  Insulin (2-19.6): 5.4
  Insulin Auto Ab (<0.4): 4.6
  Islet Cell Ab Titers: 20
[6]
  C-Peptide (0.8-3.85): 2.74
  GAD-65 (<5): <5
  Glucose: 143
  HgbA1C: 6.3
  IA2 Ab (Islet cell Ab Screen) (<0.8): 43.8
  Insulin (2-19.6): 34.3
  Insulin Auto Ab (<0.4): 4.2
[7]
  C-Peptide (0.8-3.85): 3.17
  IA2 Ab (Islet cell Ab Screen) (<0.8): 46.5
  Insulin (2-19.6): 31.1
  Insulin Auto Ab (<0.4): 2.4
  Islet Cell Ab Titers: 20
[8]
  HgbA1C: 6.9
  IA2 Ab (Islet cell Ab Screen) (<0.8): 17
  Insulin Auto Ab (<0.4): 2.1
  Islet Cell Ab Titers: negative
[9]
  C-Peptide (0.8-3.85): 2.73
  HgbA1C: 6.5
  IA2 Ab (Islet cell Ab Screen) (<0.8): 35.7
  Insulin (2-19.6): 25
  Insulin Auto Ab (<0.4): 0.9
  Islet Cell Ab Titers: negative
[10]
  C-Peptide (0.8-3.85): 2.14
  GAD-65 (<5): 66
  Glucose: 97
  HgbA1C: 6.5
  IA2 Ab (Islet cell Ab Screen) (<0.8): 30
  Insulin (2-19.6): 14.8
  Insulin Auto Ab (<0.4): 0.8
  Islet Cell Ab Titers: negative
[11]
  C-Peptide (0.8-3.85): 5.21
  GAD-65 (<5): 70
  Glucose: 168
  HgbA1C: 6.8
  IA2 Ab (Islet cell Ab Screen) (<0.8): 25.9
  Insulin (2-19.6): 47.3
  Insulin Auto Ab (<0.4): 1
  Islet Cell Ab Titers: negative
[12]
  C-Peptide (0.8-3.85): 4.3
  GAD-65 (<5): 15
  Glucose: 160
  HgbA1C: 6.2
  IA2 Ab (Islet cell Ab Screen) (<0.8): 39.4
  Insulin (2-19.6): 37.2
  Insulin Auto Ab (<0.4): 0.9
  Islet Cell Ab Titers: negative
[13]
  C-Peptide (0.8-3.85): 1.38
  GAD-65 (<5): 7
  HgbA1C: 6.5
  IA2 Ab (Islet cell Ab Screen) (<0.8): 38.8
  Insulin (2-19.6): 7.7
  Insulin Auto Ab (<0.4): 0.9
  Islet Cell Ab Titers: negative
[14]
  C-Peptide (0.8-3.85): 1.22
  GAD-65 (<5): <5
  Glucose: 112
  HgbA1C: 6.3
  IA2 Ab (Islet cell Ab Screen) (<0.8): 39.4
  Insulin (2-19.6): 6.4
  Insulin Auto Ab (<0.4): 1.7
  Islet Cell Ab Titers: negative
[15]
  C-Peptide (0.8-3.85): 1.33
  GAD-65 (<5): <5
  Glucose: 113
  HgbA1C: 6.2
  IA2 Ab (Islet cell Ab Screen) (<0.8): 39.2
  Insulin (2-19.6): 6.6
  Insulin Auto Ab (<0.4): 0.7
  Islet Cell Ab Titers: negative
[16]
  C-Peptide (0.8-3.85): 1.61
  GAD-65 (<5): <5
  Glucose: 85
  HgbA1C: 6.4
  IA2 Ab (Islet cell Ab Screen) (<0.8): 44.5
  Insulin (2-19.6): 5.6
  Insulin Auto Ab (<0.4): 0.5
  Islet Cell Ab Titers: negative
[17]
  C-Peptide (0.8-3.85): 2.81
  GAD-65 (<5): <5
  Glucose: 230
  HgbA1C: 6.9
  IA2 Ab (Islet cell Ab Screen) (<0.8): 46
  Insulin (2-19.6): 24.1
  Insulin Auto Ab (<0.4): 0.5
  Islet Cell Ab Titers: negative
[18]
  C-Peptide (0.8-3.85): 1.68
  GAD-65 (<5): 105
  Glucose: 278
  HgbA1C: 8.1
  IA2 Ab (Islet cell Ab Screen) (<0.8): 6.5
  Insulin (2-19.6): 6.1
  Insulin Auto Ab (<0.4): <0.4
  Islet Cell Ab Titers: negative
[19]
  C-Peptide (0.8-3.85): 2.88
  GAD-65 (<5): 131
  Glucose: 148
  HgbA1C: 7.8
  IA2 Ab (Islet cell Ab Screen) (<0.8): 13.1
  Insulin (2-19.6): 47.8
  Insulin Auto Ab (<0.4): <0.4
  Islet Cell Ab Titers: negative
[20]
  C-Peptide (0.8-3.85): 2.36
  GAD-65 (<5): 48
  Glucose: 148
  HgbA1C: 7.1
  IA2 Ab (Islet cell Ab Screen) (<0.8): 25.6
  Insulin (2-19.6): 33.7
  Insulin Auto Ab (<0.4): 0.5
  Islet Cell Ab Titers: negative
[21]
  C-Peptide (0.8-3.85): 1.41
  GAD-65 (<5): 24
  Glucose: 170
  HgbA1C: 6.9
  IA2 Ab (Islet cell Ab Screen) (<0.8): 26.5
  Insulin (2-19.6): 14.3
  Insulin Auto Ab (<0.4): 0.7
  Islet Cell Ab Titers: 20
